The values that follow come from patent publication US9012443B2 (Amgen Inc., priority 2011, dated 2015).

A value given as a limit tells only on which side of the number the result lay.

Broadly, the IC50 is the concentration needed to halve the response being measured.

In test [1] the target is T1, Nav 1.7 (Homo sapiens (Human), UniProt Q15858). As to the kind of experiment: Nav 1.7 in vitro PX assay (PatchXpress whole cell voltage clamp). As to conditions: 293 cells, human Nav1.7, partially inactivated state; read-out: Nav1.7 PX IC50 IP. Format: cell-based. In short, it runs like this:
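HEK293 cells stably expressing human Nav1.7, whole-cell voltage clamp on PatchXpress, held at potential giving 20–50% inactivation; current elicited by 20 msec pulse to −10 mV.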

Test [2] has as its target T1, Nav 1.7. As to the kind of experiment: Nav 1.7 IWQ in vitro assay (IonWorks Quattro population patch-clamp). Format: cell-based. As to conditions: for IC50: 293 cells stably transfected with Nav 1.7, second part of table, read-out: Nav1.7 IWQ IC50 IP. Put shortly: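 HEK293 cells stably expressing Nav 1.7, recorded by automated population patch-clamp with a train of depolarizations producing increasing inactivation. Single compound concentration added during 3–8 min unclamped period, then same protocol repeated. Leak-corrected current at 26th pulse to −20 mV gave percent block (duplicate); IC50 fitted from concentration–block curves.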

T1 sequence (Q15858 whole entry): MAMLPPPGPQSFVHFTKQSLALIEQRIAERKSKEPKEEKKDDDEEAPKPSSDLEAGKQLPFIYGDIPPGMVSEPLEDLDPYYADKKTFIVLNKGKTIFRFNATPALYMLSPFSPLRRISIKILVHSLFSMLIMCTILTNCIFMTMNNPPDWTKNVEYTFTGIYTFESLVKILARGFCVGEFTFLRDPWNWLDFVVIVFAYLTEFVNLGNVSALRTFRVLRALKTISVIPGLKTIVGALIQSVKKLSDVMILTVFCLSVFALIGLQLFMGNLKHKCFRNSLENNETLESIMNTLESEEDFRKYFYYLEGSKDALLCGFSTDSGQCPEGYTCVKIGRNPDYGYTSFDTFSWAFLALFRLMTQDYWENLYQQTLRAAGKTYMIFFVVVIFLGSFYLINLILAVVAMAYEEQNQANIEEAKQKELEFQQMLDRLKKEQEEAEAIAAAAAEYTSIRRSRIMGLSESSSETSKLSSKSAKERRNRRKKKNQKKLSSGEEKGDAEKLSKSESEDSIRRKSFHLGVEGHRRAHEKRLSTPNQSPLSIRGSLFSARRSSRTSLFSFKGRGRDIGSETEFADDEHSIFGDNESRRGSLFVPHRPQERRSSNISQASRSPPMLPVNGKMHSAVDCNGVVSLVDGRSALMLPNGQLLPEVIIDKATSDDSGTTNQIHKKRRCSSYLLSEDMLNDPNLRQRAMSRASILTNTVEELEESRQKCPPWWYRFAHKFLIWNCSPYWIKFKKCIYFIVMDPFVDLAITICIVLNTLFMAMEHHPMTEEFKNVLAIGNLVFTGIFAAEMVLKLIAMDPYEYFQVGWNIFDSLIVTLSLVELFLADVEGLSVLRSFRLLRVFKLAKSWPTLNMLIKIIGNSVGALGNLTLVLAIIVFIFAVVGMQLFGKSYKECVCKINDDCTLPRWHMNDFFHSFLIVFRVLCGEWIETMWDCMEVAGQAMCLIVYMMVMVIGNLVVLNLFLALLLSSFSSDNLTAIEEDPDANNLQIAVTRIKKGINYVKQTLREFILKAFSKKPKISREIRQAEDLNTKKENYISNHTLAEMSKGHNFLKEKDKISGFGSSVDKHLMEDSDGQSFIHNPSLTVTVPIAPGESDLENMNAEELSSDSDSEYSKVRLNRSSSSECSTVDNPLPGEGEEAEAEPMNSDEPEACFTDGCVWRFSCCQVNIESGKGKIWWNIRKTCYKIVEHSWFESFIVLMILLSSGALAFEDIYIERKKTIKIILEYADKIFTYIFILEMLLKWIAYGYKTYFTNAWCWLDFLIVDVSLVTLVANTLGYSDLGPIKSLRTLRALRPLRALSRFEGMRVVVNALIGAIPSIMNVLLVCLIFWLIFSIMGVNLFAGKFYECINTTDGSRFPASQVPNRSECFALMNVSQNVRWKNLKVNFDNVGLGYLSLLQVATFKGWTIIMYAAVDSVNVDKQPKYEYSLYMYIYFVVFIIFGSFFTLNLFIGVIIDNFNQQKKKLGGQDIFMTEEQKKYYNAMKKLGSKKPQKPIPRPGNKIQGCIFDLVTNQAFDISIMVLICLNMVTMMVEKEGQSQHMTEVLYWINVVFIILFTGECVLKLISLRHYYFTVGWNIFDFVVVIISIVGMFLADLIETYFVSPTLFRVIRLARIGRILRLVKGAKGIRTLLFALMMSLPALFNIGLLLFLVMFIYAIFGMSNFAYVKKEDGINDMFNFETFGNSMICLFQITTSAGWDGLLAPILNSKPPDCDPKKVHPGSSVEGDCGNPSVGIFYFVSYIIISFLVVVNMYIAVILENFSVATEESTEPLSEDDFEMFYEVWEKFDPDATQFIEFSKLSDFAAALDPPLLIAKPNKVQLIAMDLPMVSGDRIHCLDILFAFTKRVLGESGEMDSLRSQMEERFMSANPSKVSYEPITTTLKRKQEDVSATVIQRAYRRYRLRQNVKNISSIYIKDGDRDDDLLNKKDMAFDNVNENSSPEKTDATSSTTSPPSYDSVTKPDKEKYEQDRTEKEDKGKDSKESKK

On to `CN(Cc1ccccc1)c1cccc2cc(S(=O)(=O)Nc3ncns3)ccc12` [Example 100, 5-(benzyl(methyl)amino)-N-(1,2,4-thiadiazol-5-yl)naphthalene-2-sulfonamide], for which the half-inhibitory concentration (IC50) in test [1] stood at 1460 nM; in test [2], 290 nM.
On to `COc1ccc(Cl)cc1-c1nccc2cc(S(=O)(=O)Nc3ccncn3)ccc12` [Example 146, 1-(5-CHLORO-2-METHOXYPHENYL)-N-(PYRIMIDIN-4-YL)ISOQUINOLINE-6-SULFONAMIDE], for which the half-inhibitory concentration (IC50) in test [1] was determined as 1370 nM; in test [2], 30 nM.
On to `COc1cc(C(F)(F)F)ccc1-c1nncc2cc(S(=O)(=O)Nc3nccs3)ccc12` [Example 253, 1-(2-METHOXY-4-(TRIFLUOROMETHYL)PHENYL)-N-(THIAZOL-2-YL)PHTHALAZINE-6-SULFONAMIDE], for which the IC50 in test [1] came out at 340 nM; in test [2] it was 20 nM.
The like results for `COc1cc(C(F)(F)F)ccc1-c1ncnc2cc(S(=O)(=O)Nc3ncco3)ccc12` [Example 264, 4-(2-METHOXY-4-(TRIFLUOROMETHYL)PHENYL)-N-(OXAZOL-2-YL)QUINAZOLINE-7-SULFONAMIDE] were, in that order, 1870 nM and 170 nM.
On the same counts, the results for `COc1cc(C(F)(F)F)ccc1-c1ncnc2cc(S(=O)(=O)Nc3ccncn3)ccc12` [Example 262, 4-(2-METHOXY-4-(TRIFLUOROMETHYL)PHENYL)-N-(PYRIMIDIN-4-YL)QUINAZOLINE-7-SULFONAMIDE] are 960 nM and 40 nM.
The like results for `O=S(=O)(Nc1nccs1)c1ccc2c(-c3ccc(C(F)(F)F)cc3Br)nccc2c1` [Example 235, 1-(2-BROMO-4-(TRIFLUOROMETHYL)PHENYL)-N-(THIAZOL-2-YL)ISOQUINOLINE-6-SULFONAMIDE] were, in that order, 150 nM and 50 nM.
For the molecule `Cc1cc2cnn(C)c2cc1-c1nccc2cc(S(=O)(=O)Nc3ccncn3)ccc12` [Example 165], the figures for the 50% inhibitory concentration (IC50) in test [1] and in test [2] were above 30000 nM and 5430 nM, respectively.
The like results for `COc1ncc(Cl)cc1-c1nccc2cc(S(=O)(=O)Nc3ccncn3)ccc12` [Example 168, 1-(5-CHLORO-2-METHOXYPYRIDIN-3-YL)-N-(PYRIMIDIN-4-YL)ISOQUINOLINE-6-SULFONAMIDE] were, in that order, 1600 nM and 30 nM.
The like results for `CN1CCC(c2cc(C(F)(F)F)ccc2-c2cccc3cc(S(=O)(=O)Nc4ccncn4)ccc23)CC1` [Example 116] were, in that order, 623 nM and 70 nM.
The like results for `COc1cc(C(F)(F)F)ccc1-c1ncc(F)c2cc(S(=O)(=O)Nc3ccncn3)ccc12` [Example 216, 4-FLUORO-1-(2-METHOXY-4-(TRIFLUOROMETHYL)PHENYL)-N-(PYRIMIDIN-4-YL)ISOQUINOLINE-6-SULFONAMIDE] were, in that order, 559 nM and 40 nM.
For the molecule `COc1cc(F)ccc1-c1nncc2cc(S(=O)(=O)Nc3nccs3)ccc12` [Example 250, 1-(4-FLUORO-2-METHOXYPHENYL)-N-(THIAZOL-2-YL)PHTHALAZINE-6-SULFONAMIDE], the results for the concentration for half-maximal inhibition (IC50) in test [1] and in test [2] were 1150 nM and 50 nM, respectively.
On to `COc1cc(Cl)ccc1-c1ccnc2cc(S(=O)(=O)Nc3nccs3)ccc12` [Example 275, 4-(4-CHLORO-2-METHOXYPHENYL)-N-(THIAZOL-2-YL)QUINOLINE-7-SULFONAMIDE], for which the IC50 in test [1] was determined as 420 nM; in test [2], 40 nM.
On the same counts, the results for `COc1cc(C(F)(F)F)ccc1-c1c(N)cnc2cc(S(=O)(=O)Nc3nccs3)ccc12` [Example 283, 3-AMINO-4-(2-METHOXY-4-(TRIFLUOROMETHYL)PHENYL)-N-(THIAZOL-2-YL)QUINOLINE-7-SULFONAMIDE] are 210 nM and 10 nM.
For `COc1cc(C#N)ccc1-c1nccc2cc(S(=O)(=O)Nc3ccncn3)ccc12` [Example 206, 1-(4-CYANO-2-METHOXYPHENYL)-N-(PYRIMIDIN-4-YL)ISOQUINOLINE-6-SULFONAMIDE], the results for the IC50 in test [1] and in test [2] were 4420 nM and 110 nM, respectively.
For the molecule `Cc1cc(Cl)ccc1-c1nccc2cc(S(=O)(=O)Nc3nccs3)ccc12` [Example 209, 1-(4-CHLORO-2-METHYLPHENYL)-N-(THIAZOL-2-YL)ISOQUINOLINE-6-SULFONAMIDE 2,2,2-TRIFLUOROACETATE], the IC50 amounted to 385 nM in test [1] and 60 nM in test [2].
The like results for `COc1cc(C(F)(F)F)ccc1-c1nccc2cc(S(=O)(=O)Nc3nccs3)ccc12` [Example 196, 1-(2-METHOXY-4-(TRIFLUOROMETHYL)PHENYL)-N-(THIAZOL-2-YL)ISOQUINOLINE-6-SULFONAMIDE] were, in that order, 298 nM and 10 nM.
On the same counts, the results for `Cn1ccnc1-c1cc(C(F)(F)F)ccc1-c1cccc2cc(S(=O)(=O)Nc3ncc(F)s3)ccc12` [Example 111] are 332 nM and 60 nM.
On the same counts, the results for `O=S(=O)(Nc1ncns1)c1ccc2c(N3CCCC3c3cccnc3)cccc2c1` (centres unmarked) [Example 85] are 173 nM and 10 nM.
Consider `NC(=O)c1cc(C(F)(F)F)ccc1-c1nccc2cc(S(=O)(=O)Nc3nccs3)ccc12` [Example 227, 2-(6-(N-(THIAZOL-2-YL)SULFAMOYL)ISOQUINOLIN-1-YL)-5-(TRIFLUOROMETHYL)BENZAMIDE], for which the IC50 was 2270 nM in test [1] and 110 nM in test [2].
Turning to `O=S(=O)(Nc1ccncn1)c1ccc2c(-c3cnn(-c4cccc(Cl)c4)c3)nccc2c1` [Example 429, 1-(1-(3-CHLOROPHENYL)-1H-PYRAZOL-4-YL)-N-(PYRIMIDIN-4-YL)ISOQUINOLINE-6-SULFONAMIDE], the IC50 in test [1] was above 30000 nM. Also, in test [2] (at […]), the “Nav1.7 Single Point Data IWQ (at […]) (%)” value stood at 54.7%.
For `COc1cc(OC(F)(F)F)ccc1-c1nccc2cc(S(=O)(=O)Nc3ccncn3)ccc12` [Example 153, 1-(2-METHOXY-4-(TRIFLUOROMETHOXY)PHENYL)-N-(PYRIMIDIN-4-YL)ISOQUINOLINE-6-SULFONAMIDE], the half-inhibitory concentration (IC50) was determined as 914 nM in test [1] and 20 nM in test [2].
On the same counts, the results for `O=S(=O)(Nc1ccncn1)c1ccc2c(OCc3ncoc3-c3ccccc3)nccc2c1` [Example 130, 1-((5-PHENYLOXAZOL-4-YL)METHOXY)-N-(PYRIMIDIN-4-YL)ISOQUINOLINE-6-SULFONAMIDE] are 4510 nM and 500 nM.
Take `COc1cc(C(F)(F)F)ccc1-c1nccc2cc(S(=O)(=O)Nc3ccnc(C)n3)ccc12` [Example 182, 1-(2-METHOXY-4-(TRIFLUOROMETHYL)PHENYL)-N-(2-METHYLPYRIMIDIN-4-YL)ISOQUINOLINE-6-SULFONAMIDE]: the IC50 in test [1] stood at 11700 nM; in test [2], 4260 nM.
The like results for `COc1cc(F)ccc1-c1nccc2cc(S(=O)(=O)Nc3ccncn3)ccc12` [Example 167, 1-(4-FLUORO-2-METHOXYPHENYL)-N-(PYRIMIDIN-4-YL)ISOQUINOLINE-6-SULFONAMIDE] were, in that order, 4260 nM and 50 nM.
On the same counts, the results for `C[C@@H](COc1ccc(Cl)cc1)Oc1nccc2cc(S(=O)(=O)Nc3ccncn3)ccc12` [Example 131, (S)-1-((1-(4-CHLOROPHENOXY)PROPAN-2-YL)OXY)-N-(PYRIMIDIN-4-YL)ISOQUINOLINE-6-SULFONAMIDE] are 4190 nM and 810 nM.
With `O=C(c1ccccc1)N1CCCC1c1cccc2cc(S(=O)(=O)Nc3nccs3)ccc12` (centres unmarked) [Example 101], the values for the concentration for half-maximal inhibition (IC50) in test [1] and in test [2] were 11800 nM and 1160 nM, respectively.
With `O=S(=O)(Nc1nccs1)c1ccc2c(-c3ccc(C(F)(F)F)cc3CC(O)CO)nccc2c1` (centres unmarked) [Example 230, 1-(2-(2,3-DIHYDROXYPROPYL)-4-(TRIFLUOROMETHYL)PHENYL)-N-(THIAZOL-2-YL)ISOQUINOLINE-6-SULFONAMIDE 2,2,2-TRIFLUOROACETATE], the concentration for half-maximal inhibition (IC50) in test [1] was 590 nM; in test [2] it was 30 nM.
In the case of `COc1cc(C(F)(F)F)ccc1-c1nccc2cc(S(=O)(=O)Nc3ncncc3F)ccc12` [Example 183, N-(5-FLUOROPYRIMIDIN-4-YL)-1-(2-METHOXY-4-(TRIFLUOROMETHYL)PHENYL)ISOQUINOLINE-6-SULFONAMIDE], the half-inhibitory concentration (IC50) was found to be 5870 nM in test [1] and 670 nM in test [2].
The like results for `O=S(=O)(Nc1nccs1)c1ccc2c(-c3ccc(F)cc3-c3ccncc3)nccc2c1` [Example 126, 1-(4-FLUORO-2-(PYRIDIN-4-YL)PHENYL)-N-(THIAZOL-2-YL)ISOQUINOLINE-6-SULFONAMIDE] were, in that order, 2660 nM and 130 nM.
Consider `COc1cc(C(F)(F)F)ccc1-c1nccc2cc(S(=O)(=O)Nc3cccnn3)ccc12` [Example 185, 1-(2-METHOXY-4-(TRIFLUOROMETHYL)PHENYL)-N-(PYRIDAZIN-3-YL)ISOQUINOLINE-6-SULFONAMIDE], for which the IC50 in test [1] turned out to be 2700 nM; in test [2], 270 nM.
On the same counts, the results for `Cc1c(-c2nccc3cc(S(=O)(=O)Nc4nccs4)ccc23)cnn1-c1ccccc1` [Example 208, 1-(5-METHYL-1-PHENYL-1H-PYRAZOL-4-YL)-N-(THIAZOL-2-YL)ISOQUINOLINE-6-SULFONAMIDE 2,2,2-TRIFLUOROACETATE] are 27500 nM and 2140 nM.
The like results for `O=S(=O)(Nc1nccs1)c1ccc2c(N3CCC[C@H]3c3ccccc3)nccc2c1` [Example 239, (S)-1-(2-PHENYLPYRROLIDIN-1-YL)-N-(THIAZOL-2-YL)ISOQUINOLINE-6-SULFONAMIDE] were, in that order, 4590 nM and 1450 nM.
Take `COc1cc(C#N)ccc1-c1nncc2cc(S(=O)(=O)Nc3nccs3)ccc12` [Example 251, 1-(4-CYANO-2-METHOXYPHENYL)-N-(THIAZOL-2-YL)PHTHALAZINE-6-SULFONAMIDE]: the IC50 in test [1] is 1990 nM; in test [2], 80 nM.
The like results for `O=S(=O)(Nc1ccncn1)c1ccc2c(-c3ccc(C(F)(F)F)cc3C3(F)CNC3)cccc2c1` [Example 118] were, in that order, 652 nM and 30 nM.
